Test results taken from patent US20250082674A1, “METHODS OF TREATING COPPER METABOLISM-ASSOCIATED DISEASES OR DISORDERS” (priority 2021, published 2025).

Details: in vivo

Bis-choline tetrathiomolybdate [BC-TTM]
AEs in SOC Investigations: 29.5%
AEs in SOC Metabolism and nutrition disorders: 11.5%
AEs in SOC Skin and subcutaneous tissue disorders: 13.1%
Affective disorder, E events: 0
Affective disorder, N participants: 0
Alanine aminotransferase increased, E events: 14
Alanine aminotransferase increased, N participants: 12
Alanine aminotransferase increased, participants (%): 19.7%
Anxiety, E events: 1
Anxiety, N participants: 1
Anxiety, participants (%): 1.6%
Aspartate aminotransferase increased, E events: 4
Aspartate aminotransferase increased, N participants: 4
Aspartate aminotransferase increased, participants (%): 6.6%
Attention deficit hyperactivity disorder, E events: 0
Attention deficit hyperactivity disorder, N participants: 0
Blood and lymphatic system disorders, E events: 18
Blood and lymphatic system disorders, N participants: 7
Blood and lymphatic system disorders, participants (%): 11.5%
Cardiac disorders, E events: 5
Cardiac disorders, N participants: 3
Cardiac disorders, participants (%): 4.9%
Congenital, familial, and genetic disorders, E events: 0
Congenital, familial, and genetic disorders, N participants: 0
Dyslipidemia, E events: 1
Dyslipidemia, N participants: 1
Dyslipidemia, participants (%): 1.6%
Ear and labyrinth disorders, E events: 1
Ear and labyrinth disorders, N participants: 1
Ear and labyrinth disorders, participants (%): 1.6%
Eczema, E events: 1
Eczema, N participants: 1
Eczema, participants (%): 1.6%
Eye disorders, E events: 0
Eye disorders, N participants: 0
Fatigue, E events: 5
Fatigue, N participants: 5
Fatigue, participants (%): 8.2%
Gamma-glutamyltransferase increased, E events: 3
Gamma-glutamyltransferase increased, N participants: 3
Gamma-glutamyltransferase increased, participants (%): 4.9%
Gastrointestinal disorders, E events: 30
Gastrointestinal disorders, N participants: 18
Gastrointestinal disorders, participants (%): 29.5%
Hand dermatitis, E events: 1
Hand dermatitis, N participants: 1
Hand dermatitis, participants (%): 1.6%
Hepatic enzyme increased, E events: 3
Hepatic enzyme increased, N participants: 3
Hepatic enzyme increased, participants (%): 4.9%
Hepatobiliary disorders, E events: 3
Hepatobiliary disorders, N participants: 2
Hepatobiliary disorders, participants (%): 3.3%
Hyperlipidaemia, E events: 1
Hyperlipidaemia, N participants: 1
Hyperlipidaemia, participants (%): 1.6%
Hypertriglyceridaemia, E events: 3
Hypertriglyceridaemia, N participants: 1
Hypertriglyceridaemia, participants (%): 1.6%
Infections and infestations, E events: 23
Infections and infestations, N participants: 17
Infections and infestations, participants (%): 27.9%
Injury, poisoning and procedural complications, E events: 13
Injury, poisoning and procedural complications, N participants: 7
Injury, poisoning and procedural complications, participants (%): 11.5%
Investigations, E events: 29
Investigations, N participants: 18
Investigations, participants (%): 29.5%
Metabolism and nutrition disorders, E events: 10
Metabolism and nutrition disorders, N participants: 7
Metabolism and nutrition disorders, participants (%): 11.5%
Neoplasms benign, malignant, and unspecified (incl cysts and polyps), E events: 1
Neoplasms benign, malignant, and unspecified (incl cysts and polyps), N participants: 1
Neoplasms benign, malignant, and unspecified (incl cysts and polyps), participants (%): 1.6%
Nervous system disorders, E events: 12
Nervous system disorders, N participants: 11
Nervous system disorders, participants (%): 18.0%
Neutrophil count decreased, E events: 1
Neutrophil count decreased, N participants: 1
Neutrophil count decreased, participants (%): 1.6%
Post-traumatic stress disorder, E events: 1
Post-traumatic stress disorder, N participants: 1
Post-traumatic stress disorder, participants (%): 1.6%
Product issues, E events: 0
Product issues, N participants: 0
Pruritus, E events: 2
Pruritus, N participants: 2
Pruritus, participants (%): 3.3%
Psychiatric disorders, E events: 3
Psychiatric disorders, N participants: 3
Psychiatric disorders, participants (%): 4.9%
Pyrexia, E events: 1
Pyrexia, N participants: 1
Pyrexia, participants (%): 1.6%
Rash pruritic, E events: 1
Rash pruritic, N participants: 1
Rash pruritic, participants (%): 1.6%
Rash, E events: 5
Rash, N participants: 1
Rash, participants (%): 1.6%
Renal and urinary disorders, E events: 2
Renal and urinary disorders, N participants: 1
Renal and urinary disorders, participants (%): 1.6%
Reproductive system and breast disorders, E events: 0
Reproductive system and breast disorders, N participants: 0
Respiratory, thoracic, and mediastinal disorders, E events: 4
Respiratory, thoracic, and mediastinal disorders, N participants: 3
Respiratory, thoracic, and mediastinal disorders, participants (%): 4.9%
Restlessness, E events: 0
Restlessness, N participants: 0
Skin and subcutaneous tissue disorders, E events: 15
Skin and subcutaneous tissue disorders, N participants: 8
Skin and subcutaneous tissue disorders, participants (%): 13.1%
Sleep disorder, E events: 1
Sleep disorder, N participants: 1
Sleep disorder, participants (%): 1.6%
Vascular disorders, E events: 5
Vascular disorders, N participants: 3
Vascular disorders, participants (%): 4.9%
imbalances in neurologic and psychiatric events after switch from SoC to BC-TTM: not observed
